From patent US8314255B2, “Use of phthalimide and/or sulphonamide derivatives in the treatment of diseases which require reducing the TNF- α levels and an exogenous source of nitric oxide, phthalimide derivatives, sulphonamide derivatives, and a method for obtaining a sulphonamide derivative” (priority 2007, dated 2012)

Tests used:
[1] = test system: Salmonella typhimurium TA102; experiment: AMES test, mutagenic evaluation in Salmonella typhimurium TA102 strain with/without metabolic activation (S9); assay type: cell-based
Method: The procedure was firstly developed by (MARON, D. M. and AMES, B. N. Mut. Res. v. 113, pp. 173-215, 1983)
For this assay, Salmonella typhimurium TA100 and TA102 strains from the mutagenicity laboratory of the “Faculdade de Ciências Farmacêuticas—UNESP Araraquara” were used. Such strains have the following characteristics: (AMES, 1983)
The positive controls are mutagenic compounds specific for each strain and test condition, with 25 μL/plate of sodium azide (1.25 μg/plate) and 100 μL of mitomycin (0.5 μg/plate) being the controls for TA100 and TA102, respectively, in the absence of metabolic activation. For assays with metabolic activation, the positive control for TA100 is 50 μL 2-antramine (1.25 μg/plate) and for TA102 it is 50 μL 2-aminofluorene (1.25 μg/plate).
The preincubation method was used.
In laminar flow, Salmonella typhimurium (TA100 and TA 102) strains were inoculated individually with a platinum loop, in the respective nutrient broths and maintained at 37° C., under constant stirring (160 rpm) during 14 hours, in order to achieve a density of 1 to 2×10^9 bacteria/mL.
Different concentrations of the compounds were added into 100 μL of 0.2M phosphate buffer pH 7.4 (or 500 μL of the mixture S9 in metabolic activation assays) and incubated for 20-30 minutes at 37° C. Solutions containing the compounds had DMSO as the solvent. Thereafter, 2 mL of top agar supplemented with traces of histidine and biotin was added, homogenized and plated in glycosylated minimum medium. After solidification of the top agar, the plates were incubated for 48 hours at a 37° C. Then, the counting of the number of revertant colonies per plate was performed. All tested concentrations, positive and negative controls were run in triplicate.
After 48 hours, the revertant colonies were counted manually, and the protoCOL Colony Counter Version 3.15.630 (1998-2001) SYNBIOSIS LTD system was used for the positive control.
The final data obtained from the assay was analyzed using the statistical software Salanal (Salmonella Assay Analysis) version 1.0 from the Research Triangle Institute, RTP, North Carolina, USA. Such software allows the dose-response effect to be evaluated by means of analysis of variance (ANOVA-test F) computations between the measurement of the number of revertants at the different tested concentrations (doses) and the negative control, followed by a linear regression. The software model chosen for analyzing the data was Bernstein's (BERNSTEIN, L. et al. Mutat. Res. v. 97, p. 267-281, 1982). The slope of the straight line from the linear portion of the dose-response curve is also provided by this software and corresponds to the number of revertants induced per measurement unit of the analyzed sample.
From the results, the mutagenicity ratio (MR) was computed for each analyzed dose from each compound. MR is given by the following equation:
MR=average number of revertants per test plate (spontaneous+induced revertants) […] average number of revertants per plate of the negative control (spontaneous revertants)
The spontaneous growing means that the number of revertants which developed on the plate, regardless of being induced or not, wherein values higher or equal to 2 are considered as a positive response (VALENT, G. V. et al. Env. Toxicol. Water Quality. v. 8, p. 371-381, 1993).
The mutagenicity test with metabolic activation system was performed with a microsomal fraction S9 (S9 mix) prepared from a liver homogenizate from Sprague Dawley rats, previously treated with Aroclor 1254, acquired in the freeze-dried form.
The procedure for this assay is the same, however, instead of the buffer, 500 μL of the S9 mixture should be added.
The S9 mixture has a viability of 4 hours from preparation when put on ice. The plates are then incubated for 48 hours at 37° C. After the required time has elapsed, the counting of the revertant colonies was carried out. All tested concentrations, positive and negative controls were run in triplicate.

[2] = test system: mouse ear edema induced by capsaicin; experiment: Mouse ear edema assay induced by capsaicin; assay type: in vivo; details: 300 μmol/Kg i.p., capsaicin 250 μg/ear 1 hour after administration
Method: This assay is characterized by an acute inflammatory response of the ear, with development of edema, and it was performed in order to evaluate the anti-inflammatory activity of the synthesized compounds.
In this assay, indomethacin was used as a control at 100 μmol/Kg, and the phthalimide derivatives were firstly evaluated at 300 μmol/Kg via i.p. From table 4, it can be observed that compounds IC and IE show an ear edema inhibition percentage higher than 64%. […] The other compounds, however, show a similar activity when compared to indomethacin (FIG. 01), taking into consideration the standard error.
This assay was performed using Swiss mice from both genders weighing from 18 to 30 grams. The animals were fasted for 8 hours with free access to water. This assay consists in locally administering (right ear) 20 μl of a capsaicin solution (250 μg/ear) diluted in acetone, 1 hour after the i.p. administration (diluted in 0.5% gum arabic). The left ear (control) received the carrier in which capsaicin was diluted (acetone) and the right ear received capsaicin. This assay is characterized by an acute inflammatory response of the ear, with development of edema. The animals were sacrificed and their ears were weighted to obtain the inflammation index. A biopsy (8 mm in diameter) of the ear was carried out. Next, the weights of the inflamed ears were compared against the weights of the contralateral ear (control ear) which were not treated with the phlogistic agent. The edema inhibition percentage was calculated by subtracting the ear treated with the carrier by that treated with capsaicin from each group of animals treated with the test substances, and then it was divided by the difference between the groups of the irritating agents and the control groups.

Structure (SMILES): O=C1c2ccccc2C(=O)N1c1ccc(CO[N+](=O)[O-])cc1 [ID, 4-(1,3-dioxo-1,3-dihydro-2H-isoindol-2-yl)benzyl nitrate]
- mutagenicity ratio (MR) ([1]; TA 102, +S9, 0.224 μmol/plate): 1.09
- number of revertants per plate ([1]; TA 102, +S9, 0.224 μmol/plate): 405.7 ± 13 revertants/plate
- mutagenicity ratio (MR) ([1]; TA 102, +S9, 0.488 μmol/plate): 1.16
- number of revertants per plate ([1]; TA 102, +S9, 0.488 μmol/plate): 434.7 ± 21 revertants/plate
- mutagenicity ratio (MR) ([1]; TA 102, +S9, 0.896 μmol/plate): 0.99
- number of revertants per plate ([1]; TA 102, +S9, 0.896 μmol/plate): 370 ± 6 revertants/plate
- mutagenicity ratio (MR) ([1]; TA 102, +S9, 1.8 μmol/plate): 1.06
- number of revertants per plate ([1]; TA 102, +S9, 1.8 μmol/plate): 397.3 ± 9.3 revertants/plate
- mutagenicity ratio (MR) ([1]; TA 102, +S9, 3.58 μmol/plate): 1.14
- number of revertants per plate ([1]; TA 102, +S9, 3.58 μmol/plate): 427.3 ± 5 revertants/plate
- mutagenicity ratio (MR) ([1]; TA 102, −S9, 0.224 μmol/plate): 1.31
- number of revertants per plate ([1]; TA 102, −S9, 0.224 μmol/plate): 340.3 ± 9.7 revertants/plate
- mutagenicity ratio (MR) ([1]; TA 102, −S9, 0.488 μmol/plate): 1.43
- number of revertants per plate ([1]; TA 102, −S9, 0.488 μmol/plate): 373.5 ± 21 revertants/plate
- mutagenicity ratio (MR) ([1]; TA 102, −S9, 0.896 μmol/plate): 1.5
- number of revertants per plate ([1]; TA 102, −S9, 0.896 μmol/plate): 391.2 ± 6.3 revertants/plate
- mutagenicity ratio (MR) ([1]; TA 102, −S9, 1.8 μmol/plate): 1.87
- number of revertants per plate ([1]; TA 102, −S9, 1.8 μmol/plate): 486.8 ± 20 revertants/plate
- mutagenicity ratio (MR) ([1]; TA 102, −S9, 3.58 μmol/plate): 1.62
- number of revertants per plate ([1]; TA 102, −S9, 3.58 μmol/plate): 420 ± 8.6 revertants/plate
- Average inhibition % (ear edema) [2]: 37.18%
